IC90 data for 23 compounds are collected here from patent US20230022724A1, “NOVEL IMIDAZOPYRAZINE DERIVATIVES” (Hoffmann-La Roche Inc., priority 2018, published 2023).

Where a name gives a salt, the structure may show the parent alone.

The first assay has as its system Acinetobacter baumannii ATCC17978. In words: Antimicrobial susceptibility testing: 90% growth inhibitory concentration (IC90) determination. The note with it: 90% growth inhibitory concentration, Acinetobacter baumannii ATCC17978, Iso-Sensitest broth, OD 600 nm over 16 h; read-out: ATCC17978 IC90. In kind it is cell-based. Here is the method:
The in vitro antimicrobial activity of the compounds was determined according to the following procedure:
The assay used a 10-points Iso-Sensitest broth medium to measure quantitatively the in vitro activity of the compounds against Acinetobacter baumannii ATCC17978 and Acinetobacter baumannii ATCC17961.
Stock compounds in DMSO were serially twofold diluted (e.g. range from 50 to 0.097 μM final concentration) in 384 wells microtiter plates and inoculated with 49 μl the bacterial suspension in Iso-Sensitest medium to have a final cell concentration of ˜5×10^(5) CFU/ml in a final volume/well of 50 ul/well. Microtiter plates were incubated at 35±2° C.
Bacterial cell growth was determined with the measurement of optical density at λ=600 nm each 20 minutes over a time course of 16 h. Growth inhibition was calculated during the logarithmic growth of the bacterial cells with determination of the concentration inhibiting 50% (IC50) and 90% (IC90) of the growth.
Table 1 provides the 90% growth inhibitory concentrations (IC90) in micromoles per liter of the compounds of present invention obtained against the strain Acinetobacter baumannii ATCC17978 and Acinetobacter baumannii ATCC17961.
As to `COc1ccc(-c2cnc3c(Nc4ccc(C(=O)N5CCN(CCN(C)C)CC5)c(Cl)c4)nccn23)cc1F` [Example 3, (2-Chloro-4-((3-(3-fluoro-4-methoxyphenyl)imidazo[1,2-a]pyrazin-8-yl)amino)phenyl)(4-(2-(dimethylamino)ethyl)piperazin-1-yl)methanone], the IC90 (commonly the concentration at which the effect reaches the 90% level) is 120 nM.

The assay is the same for the next values; noted with them: Acinetobacter baumannii, ATCC17978, 16 h, 90% growth inhibitory concentration, Acinetobacter baumannii ATCC17978, Iso-Sensitest broth, OD 600 nm over 16 h; read-out: ATCC17978 IC90.
Take `CNCC(=O)N1CCN(C(=O)c2ccc(Nc3nccn4c(-c5ccc(OCC#N)c(F)c5F)cnc34)cc2Cl)CC1` [Example 77, 2-[4-[8-[3-chloro-4-[4-[2-(methylamino)acetyl]piperazine-1-carbonyl]anilino]imidazo[1,2-a]pyrazin-3-yl]-2,3-difluorophenoxy]acetonitrile]: the IC90 came to 73 nM.
Still for that read-out and setting: the same measure for `N#CCOc1ccc(-c2cnc3c(Nc4ccc(C(=O)N5CCN(CCN6CC(C(N)=O)C6)CC5)c(Cl)c4)nccn23)c(F)c1F` [Example 94, 1-[2-[4-[2-chloro-4-[[3-[4-(cyanomethoxy)-2,3-difluorophenyl]imidazo[1,2-a]pyrazin-8-yl]amino]benzoyl]piperazin-1-yl]ethyl]azetidine-3-carboxamide;2,2,2-trifluoroacetic acid]: 54 nM; for `N#CCOc1ccc(-c2cnc3c(Nc4ccc(C(=O)N5CCC(CN)CC5)c(Cl)c4)nccn23)c(F)c1F` [Example 12, 2-(4-(8-((4-(4-(aminomethyl)piperidine-1-carbonyl)-3-chlorophenyl)amino)imidazo[1,2-a]pyrazin-3-yl)-2,3-difluorophenoxy)acetonitrile]: 49 nM.
As to `N#CCOc1ccc(-c2cnc3c(Nc4ccc(C(=O)N5CCN(c6ncccn6)CC5)c(Cl)c4)nccn23)c(F)c1F` [Example 22, 2-[4-[8-[3-chloro-4-(4-pyrimidin-2-ylpiperazine-1-carbonyl)anilino]imidazo[1,2-a]pyrazin-3-yl]-2,3-difluoro-phenoxy]acetonitrile], the IC90 turned out to be 690 nM.
Turning to `N#CCOc1ccc(-c2cnc3c(Nc4ccc(C(=O)N5CCC(c6cnc[nH]6)CC5)c(Cl)c4)nccn23)c(F)c1F` [Example 11, 2-[4-[8-[3-chloro-4-[4-(1H-imidazol-5-yl)piperidine-1-carbonyl]anilino]imidazo[1,2-a]pyrazin-3-yl]-2,3-difluoro-phenoxy]acetontrile; 2,2,2-trifluoroacetic acid], the IC90 is 140 nM.
Regarding `NCC1CCN(C(=O)c2ccc(Nc3nccn4c(-c5ccc(OCC#CCO)c(F)c5)cnc34)cc2Cl)CC1` [Example 76, [4-(aminomethyl)piperidin-1-yl]-[2-chloro-4-[[3-[3-fluoro-4-(4-hydroxybut-2-ynoxy)phenyl]imidazo[1,2-a]pyrazin-8-yl]amino]phenyl]methanone], the IC90 was 240 nM.
`N#CCOc1ccc(-c2cnc3c(Nc4ccc(C(=O)N5CCC(c6ccncc6)CC5)c(Cl)c4)nccn23)c(F)c1F` [Example 21, 2-[4-[8-[3-chloro-4-[4-(4-pyridyl)piperidine-1-carbonyl]anilino]imidazo[1,2-a]pyrazin-3-yl]-2,3-difluoro-phenoxy]acetonitrile]: the concentration for an effect of 90% (IC90) is 870 nM.
The same measure, in the same setting: the same measure for `COc1ccc(-c2cnc3c(Nc4ccc(C(=O)N5CCC(CCN)CC5)c(Cl)c4)nccn23)c(F)c1F` [Example 7, (4-(2-aminoethyl)piperidin-1-yl)(2-chloro-4-((3-(2,3-difluoro-4-methoxyphenyl)imidazo[1,2-a]pyrazin-8-yl)amino)phenyl)methanone]: 100 nM; for `COc1ccc(-c2cnc3c(Nc4ccc(C(=O)N5CCC(C(=O)NC[C@H](O)[C@@H](O)[C@H](O)[C@H](O)CO)CC5)c(Cl)c4)nccn23)cc1F` [Example 107, 1-(2-chloro-4-((3-(3-fluoro-4-methoxyphenyl)imidazo[1,2-a]pyrazin-8-yl)amino)benzoyl)-N-((2S,3R,4R,5R)-2,3,4,5,6-pentahydroxyhexyl)piperidine-4-carboxamide]: 260 nM.
Consider `COc1ccc(-c2cnc3c(Nc4ccc(C(=O)N5CCC(O)CC5)cc4)nccn23)cc1Cl` [Example 62, [4-[[3-(3-chloro-4-methoxyphenyl)imidazo[1,2-a]pyrazin-8-yl]amino]phenyl]-(4-hydroxypiperidin-1-yl)methanone], for which the IC90 stood at 900 nM.
Same read-out and setting: the value for `CN(C)CCNC1CCN(C(=O)c2ccc(Nc3nccn4c(-c5ccc(OCC#N)c(F)c5Cl)cnc34)cc2Cl)CC1` [Example 25, 2-[3-chloro-4-[8-[3-chloro-4-[4-[2-(dimethylamino)ethylamino]piperidine-1-carbonyl]anilino]imidazo[1,2-a]pyrazin-3-yl]-2-fluorophenoxy]acetonitrile; 2,2,2-trifluoroacetic acid] was 79 nM; that for `COc1ccc(-c2cnc3c(Nc4ccc(C(=O)N5CCN(C6CCNC6)CC5)c(Cl)c4)nccn23)cc1F` (centres unmarked) [Example 71, [2-chloro-4-[[3-(3-fluoro-4-methoxyphenyl)imidazo[1,2-a]pyrazin-8-yl]amino]phenyl]-(4-pyrrolidin-3-ylpiperazin-1-yl)methanone;hydrochloride] was 280 nM; that for `Cn1cnnc1C1CCN(C(=O)c2ccc(Nc3nccn4c(-c5ccc(OCC#N)c(F)c5F)cnc34)cc2Cl)CC1` [Example 23, 2-[4-[8-[3-chloro-4-[4-(4-methyl-1,2,4-triazol-3-yl)piperidine-1-carbonyl]anilino]imidazo[1,2-a]pyrazin-3-yl]-2,3-difluoro-phenoxy]acetonitrile; 2,2,2-trifluoroacetic acid] was 160 nM.

The assay is the same for the next values; noted with them: Acinetobacter baumannii, ATCC17978, 16 h, read-out: ATCC17978 IC90.
For the compound `CS(=O)(=O)C1CN(CCN2CCN(C(=O)c3ccc(Nc4nccn5c(-c6ccc(OCC#N)c(F)c6F)cnc45)cc3Cl)CC2)C1` [Example 98, 2-[4-[8-[3-chloro-4-[4-[2-(3-methylsulfonylazetidin-1-yl)ethyl]piperazine-1-carbonyl]anilino]imidazo[1,2-a]pyrazin-3-yl]-2,3-difluorophenoxy]acetonitrile; 2,2,2-trifluoroacetic acid], the IC90 turned out to be 140 nM.
On the same count and under the same terms, the value for `CC(C#N)Oc1ccc(-c2cnc3c(Nc4ccc(C(=O)N5CCN(CCCN(C)C)CC5)c(Cl)c4)nccn23)c(F)c1F` (centres unmarked) [Example 42, 2-[4-[8-[3-chloro-4-[4-[3-(dimethylamino)pro-pyl]piperazine-1-carbonyl]anilino]imi-dazo[1,2-a]pyrazin-3-yl]-2,3-difluoro-phenoxy]propanenitrile] was 200 nM; that for `N#CCOc1ccc(-c2cnc3c(Nc4ccc(C(=O)N5CCN(CCN6CCC(O)C6)CC5)c(Cl)c4)nccn23)c(F)c1F` (centres unmarked) [Example 95, 2-[4-[8-[3-chloro-4-[4-[2-(3-hydroxypyrrolidin-1-yl)ethyl]piperazine-1-carbonyl]anilino]imidazo[1,2-a]pyrazin-3-yl]-2,3-difluorophenoxy]acetonitrile; 2,2,2-trifluoroacetic acid] was 56 nM.
`N#CCOc1ccc(-c2cnc3c(Nc4ccc(C(=O)N5CCN(CCN6CCCC6CO)CC5)c(Cl)c4)nccn23)c(F)c1F` (centres unmarked) [Example 93, 2-[4-[8-[3-chloro-4-[4-[2-[2-(hydroxymethyl)pyrrolidin-1-yl]ethyl]piperazine-1-carbonyl]anilino]imidazo[1,2-a]pyrazin-3-yl]-2,3-difluorophenoxy]acetonitrile; 2,2,2-trifluoroacetic acid]: the IC90 was found to be 53 nM.
With `CN(C)CC(=O)N1CCN(C(=O)c2ccc(Nc3nccn4c(-c5ccc(OCC#N)c(F)c5F)cnc34)cc2Cl)CC1` [Example 14, 2-[4-[8-[3-chloro-4-[4-[2-(dimethylamino)acetyl]piperazine-1-carbonyl]anilino]imidazo[1,2-a]pyrazin-3-yl]-2,3-difluoro-phenoxy]acetonitrile; 2,2,2-trifluoroacetic acid], the IC90 was determined as 28 nM.
The same measure, in the same setting: the value for `COc1ccc(-c2cnc3c(Nc4ccc(C(=O)N5CCC(C(=O)N6CCOC(CN)C6)CC5)c(Cl)c4)nccn23)cc1F` (centres unmarked) [Example 52, [4-[2-(aminomethyl)morpholine-4-carbonyl]piperidin-1-yl]-[2-chloro-4-[[3-(3-fluoro-4-methoxyphenyl)imidazo[1,2-a]pyrazin-8-yl]amino]phenyl]methanone; hydrochloride] was 88 nM; that for `COC1CN(CCN2CCN(C(=O)c3ccc(Nc4nccn5c(-c6ccc(OCC#N)c(F)c6F)cnc45)cc3Cl)CC2)C1` [Example 97, 2-[4-[8-[3-chloro-4-[4-[2-(3-methoxyazetidin-1-yl)ethyl]piperazine-1-carbonyl]anilino]imidazo[1,2-a]pyrazin-3-yl]-2,3-difluorophenoxy]acetonitrile; 2,2,2-trifluoroacetic acid] was 100 nM; that for `CNCC(=O)N1CCN(C(=O)c2ccc(Nc3nccn4c(-c5ccc(OC)c(F)c5F)cnc34)cc2Cl)CC1` [Example 53, 1-[4-[2-chloro-4-[[3-(2,3-difluoro-4-methoxyphenyl)imidazo[1,2-a]pyrazin-8-yl]amino]benzoyl]piperazin-1-yl]-2-(methylamino)ethanone; hydrochloride] was 56 nM.
The same measure, in the same setting: the same measure for `N#CCOc1ccc(-c2cnc3c(Nc4ccc(C(=O)N5CCN(CCN6CC(CO)C6)CC5)c(Cl)c4)nccn23)c(F)c1F` [Example 92, 2-[4-[8-[3-chloro-4-[4-[2-[3-(hydroxymethyl)azetidin-1-yl]ethyl]piperazine-1-carbonyl]anilino]imidazo[1,2-a]pyrazin-3-yl]-2,3-difluorophenoxy]acetonitrile; 2,2,2-trifluoroacetic acid]: 50 nM.
